From patent US20200352907A1, “Use Of Carbamate Compound For Preventing, Alleviating Or Treating Absence Seizure Or Epilepsy Showing Absence Seizure” (SK BIOPHARMACEUTICALS CO., LTD., priority 2017, published 2020)

Experiments:
[1] = test system: GAERS model rats; settings: known from literature; cited from earlier work
[2] = test system: GAERS (Genetic Absence Epilepsy Rat from Strasbourg) model; experiment: Efficacy test in GAERS model rats: EEG analysis of spike-and-wave discharges (SWD); assay type: in vivo; settings: for cumulated duration of SWD / number of occurrences of SWD: 20-minute intervals 10-90 min after administration, 2-way ANOVA vs vehicle; for cumulated duration of SWD, total effect for 1 hour after administration / number of occurrences of SWD, total effect for 1 hour after administration: 1-way ANOVA vs vehicle, effect similar to valproate 150 and 200 mg/kg
Method: Twelve 5-week-old GAERS model rats were purchased from the Grenoble Institute of Neurosciences, France. After purchase, the rats were bred at a temperature of 21±2° C. under conditions of free access to food and water, and controlled light (illuminated from 8 am to 8 pm), and the condition was maintained for 2 months prior to surgery.
EEG electrodes were implanted into twelve 3-month-old GAERS rats. Stereotaxic implantation was performed under anesthesia with isoflurane (2% concentration in oxygen). The rats were fixed to the stereotaxic frame and surgery was performed while observing body temperature. An ophthalmic gel was used to prevent drying of the cornea. After cutting the hair of the incision site, it was disinfected with povidone, and after incision, four holes were drilled using a drill at the frontal cortical and parietal cortical positions of both hemispheres of the open skull. Monopolar electrodes were placed in these holes and then connected to a female connector fixed to the skull for EEG recording. The incision site was then sutured. After surgery, buprenorphine was injected subcutaneously at a dose of 0.1 mg/kg, and the anesthetic was removed and observed until recovery of consciousness. After that, the rats were kept in a cage for recovery for a week.
One week after the electrode implantation, preliminary EEG measurements of 1 hour were performed on all 12 animals, and 10 animals showing enough signal-to-noise suitable for detecting generation of SWD were selected.
Test compound and positive control drug were prepared immediately before administration. Carbamic acid (R)-1-(2-chlorophenyl)-2-tetrazol-2-yl-ethyl ester prepared in the above preparation example was used as the test compound which was dissolved in 30% (volume/volume) PEG300 (81164-14, Sigma-Aldrich), and the positive control valproate (P4543, Sigma-Aldrich) was dissolved in 0.9% sterile saline (Cooper, France). Both drugs were administered intraperitoneally at a dose of 5 ml/kg. 30% PEG300 was used for vehicle administration as the negative control.
The test was done in a cross-over method, with a minimum interval of 71 hours between each administration for wash-out of the drug. In the first stage test, the following conditions were administered. • Vehicle (30% PEG300) • Valproate 200 mg/kg • Test compound 5 mg/kg • Test compound 10 mg/kg • Test compound 20 mg/kg
In the second stage test, the following conditions were administered. • Valproate 150 mg/kg • Test compound 30 mg/kg
For EEG recording, 10 GAERS rats were placed in a recording chamber and then connected to a wire for EEG recording. After an hour of habituation process, EEG recordings of free-moving animals were performed. As a baseline phase, 20 minutes of recording were performed before drug administration, and 90 minutes of recording were performed after drug administration, using SystemPlus Evolution (Micromed). During the recording, the animals were kept in a quiet wakefulness state.
The generated SWD was analyzed using the recorded EEG data, and all data analysis was performed by blind method. SWD was analyzed for the 20-minute baseline phase and for a total of 80 minutes period from 10 to 90 minutes after drug administration. The 80 minutes were analyzed by dividing them into 20-minute intervals, and the number of occurrences of SWD and the cumulated SWD duration (the cumulated duration of SWD) were analyzed.
Results were expressed as mean value ±standard error, and prism (graphpad) was used for statistical analysis. 2-way ANOVA was used for the number of occurrences of SWD and the cumulated duration of SWD over time. Bonferroni's paired comparison method was used for comparison with the baseline period, comparison with the vehicle-administered negative control and comparison with the valproate-administered positive control. […]

[3] = compared with valproate positive control

SMILES	SWD in the GAERS model rats [1]	effect duration (cumulated duration of SWD) [2, 3]	effect duration (number of occurrences of SWD) [2, 3]	cumulated duration of SWD ([2]; test compound 10 mg/kg i.p.)	number of occurrences of SWD ([2]; test compound 10 mg/kg i.p.)	cumulated duration of SWD, total effect for 1 hour after administration ([2]; test compound 20 mg/kg i.p.)	number of occurrences of SWD, total effect for 1 hour after administration ([2]; test compound 20 mg/kg i.p.)	cumulated duration of SWD ([2]; test compound 20 mg/kg i.p.)	number of occurrences of SWD ([2]; test compound 20 mg/kg i.p.)	cumulated duration of SWD, total effect for 1 hour after administration ([2]; test compound 30 mg/kg i.p.)	number of occurrences of SWD, total effect for 1 hour after administration ([2]; test compound 30 mg/kg i.p.)	cumulated duration of SWD ([2]; test compound 30 mg/kg i.p.)	number of occurrences of SWD ([2]; test compound 30 mg/kg i.p.)
CCC1(C)CC(=O)NC1=O (stereo not shown) [ethosuximide]	inhibited	–	–	–	–	–	–	–	–	–	–	–	–
NC(=O)O[C@@H](Cn1ncnn1)c1ccccc1Cl [test compound, Carbamic acid (R)-1-(2-chlorophenyl)-2-tetrazol-2-yl-ethyl ester]	–	longer duration than valproate	longer duration than valproate	significant reduction effect in the 30-50 min and 50-70 min intervals after administration	significance in the 30 to 50 min interval after administration	significantly reduced the cumulated duration of SWD compared to the vehicle administration group	significantly reduced the number of occurrences of SWD compared to the vehicle administration group	significant reduction effect in the 30-90 min interval after administration	significance in the 30 to 90 min interval after administration	significantly reduced the cumulated duration of SWD compared to the vehicle administration group	significantly reduced the number of occurrences of SWD compared to the vehicle administration group	significant reduction effect in the entire period after administration	significance in the entire period after administration
